Source: patent publication US20240076297A1, “ADENOSINE A2A AND A2B RECEPTOR DUAL ANTAGONISTS FOR IMMUNO-ONCOLOGY” (Merck Sharp & Dohme LLC, priority 2020, published 2024)

molecular target: human A2A adenosine receptor (Homo sapiens (Human), UniProt P29274); experiment: A2A binding affinity using radioligand binding, Method (A); conditions: Method (A): filtration radioligand binding, [3H] SCH58261, membranes expressing human A2A
Description: Method (A) describes the procedure used to measure A2A binding affinity using radioligand binding. Method (B) describes the procedure used to measure A2A binding affinity using SPA technology. The method used to measure A2B binding affinity is also described below. The method used to determine the A2A IC50 value reported for each compound in the table is indicated next to the reported value. The A2B IC50 value measured using the A2B binding affinity assay is shown in the table next to the compound under the corresponding A2A value.
The A2A receptor affinity binding assay measured the amount of binding of a tritiated ligand with high affinity for the A2A adenosine receptor to membranes made from HEK293 or CHO cells recombinantly expressing the human A2A adenosine receptor, in the presence of varying concentrations of a compound of the invention. The data were generated using either filtration binding or a homogenous scintillation proximity assay (SPA).
Method (A): Measurement of A2A Binding Affinity Using Radioligand Binding
148 μL (5 μg/mL) membranes (Perkin Elmer, Cat. No. RBHA2aM400UA) and 2 μL compounds of the invention to be tested (test compound) were transferred to individual wells of a 96-well polypropylene assay plate and incubated for 15 to 30 min at room temperature. [^3H] SCH58261 ((7-(2-phenylethyl)-5-amino-2-(2-furyl)-pyrazolo-[4,3-e]-1,2,4-triazolo[1,5-c]pyrimidine)) was diluted in assay buffer (50 mM Tris pH 7.4, 10 mM MgCl2, 0.005% Tween20) to a concentration of 4 nM and 50 μL transferred to each well of the assay plate. To define total and non-specific binding, wells containing 1% DMSO and 1 μM ZM241385 (Tocris Bioscience, Cat. No. 1036) respectively, were also included. The assay plate was incubated at room temperature for 60 min with agitation. Using a FilterMate Harvester® (Perkin Elmer), the contents of the assay plate were filtered through a UniFilter-96® PEI coated plate (Perkin Elmer Cat. No. 6005274 or 6005277). Filtering was achieved by aspirating the contents of the assay plate for 5 sec, then washing and aspirating the contents three times with ice-cooled wash buffer (50 mM Tris-HCl pH 7.4, 150 mM NaCl) and allowing the vacuum manifold to dry the plate for 30 sec. The filter plate was incubated for at least 1 h at 55° C. and allowed to dry. The bottom of the filter plate was sealed with backing tape. 40 μL Ultima Gold™ (Perkin Elmer, Cat. No. 6013329) was added to each well of the filter plate and the top of the plate was sealed with TopSeal-A PLUS® clear plate seal (Perkin Elmer, Cat. No. 6050185). The plate was incubated for at least 20 min, and then the amount of radioactivity remaining in each well was determined using a TopCount® (Perkin Elmer) scintillation counter. After normalization to total and non-specific binding, the percent effect at each compound concentration was calculated. The plot of percent effect versus the log of compound concentration was analyzed electronically using a 4-parameter logistic fit based on the Levenberg-Marquardt algorithm to generate IC50 values.

Chain of human A2A adenosine receptor (P29274 whole entry): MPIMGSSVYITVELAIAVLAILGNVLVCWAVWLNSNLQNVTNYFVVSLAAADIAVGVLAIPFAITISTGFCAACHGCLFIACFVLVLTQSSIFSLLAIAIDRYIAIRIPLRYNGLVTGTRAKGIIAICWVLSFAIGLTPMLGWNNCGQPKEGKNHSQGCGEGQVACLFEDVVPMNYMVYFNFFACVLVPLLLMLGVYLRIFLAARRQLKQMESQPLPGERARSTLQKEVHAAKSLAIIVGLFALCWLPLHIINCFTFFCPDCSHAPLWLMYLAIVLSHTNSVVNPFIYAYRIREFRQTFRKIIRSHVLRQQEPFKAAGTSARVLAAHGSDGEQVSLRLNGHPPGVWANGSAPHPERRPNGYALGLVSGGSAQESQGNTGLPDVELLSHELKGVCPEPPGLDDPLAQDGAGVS

Row | Structure (SMILES) | IC50
1 | CN=S(=O)(CCc1nc2c3cccc(OC)c3nc(N)n2n1)C1CC1 (single isomer, unassigned) [Example 10.3A, (S or R)-(2-(5-amino-7-methoxy-[1,2,4]triazolo[1,5-c]quinazolin-2-yl)ethyl)(cyclopropyl)(methylimino)-l6-sulfanone] | 1.4 nM
2 | CN=S(=O)(CCc1nc2c3cccc(OC)c3nc(N)n2n1)C1CC1 (single isomer, unassigned) [Example 10.3B, (R or S)-(2-(5-amino-7-methoxy-[1,2,4]triazolo[1,5-c]quinazolin-2-yl)ethyl)(cyclopropyl)(methylimino)-λ^6-sulfanone] | 3.7 nM
3 | COc1cccc2c1nc(N)n1nc(CCS(=N)(=O)C3CC3)nc21 (single isomer, unassigned) [Example 11.1A, (S or R)-(2-(5-amino-7-methoxy-[1,2,4]triazolo[1,5-c]quinazolin-2-yl)ethyl)(cyclopropyl)(imino)-26-sulfanone] | 1.2 nM
4 | COc1cccc2c1nc(N)n1nc(CCS(=N)(=O)C3CC3)nc21 (single isomer, unassigned) [Example 11.1B, (R or S)-(2-(5-amino-7-methoxy-[1,2,4]triazolo[1,5-c]quinazolin-2-yl)ethyl)(cyclopropyl)(imino)-λ^6-sulfanone] | 3.4 nM
5 | COc1cc(F)cc2c1nc(N)n1nc(CCC3CCn4c(cnc4C4(C(F)(F)F)CC4)C3)nc21 (single isomer, unassigned) [Example 12.3A, (S or R)-9-fluoro-7-methoxy-2-(2-(3-(1-(trifluoromethyl)cyclopropyl)-5,6,7,8-tetrahydroimidazo[1,5-a]pyridin-7-yl)ethyl)-[1,2,4]triazolo[1,5-c]quinazolin-5-amine] | 5.7 nM
6 | COc1cc(F)cc2c1nc(N)n1nc(CCC3CCn4c(cnc4C4(C(F)(F)F)CC4)C3)nc21 (single isomer, unassigned) [Example 12.3B, (R or S)-9-fluoro-7-methoxy-2-(2-(3-(1-(trifluoromethyl)cyclopropyl)-5,6,7,8-tetrahydroimidazo[1,5-a]pyridin-7-yl)ethyl)-[1,2,4]triazolo[1,5-c]quinazolin-5-amine] | 6.7 nM
7 | COc1cc(F)cc2c1nc(N)n1nc(CCC3(O)CCc4c(nnn4C4CC(F)(F)C4)C3)nc21 (single isomer, unassigned) [Example 14.3A, (S or R)-5-(2-(5-amino-9-fluoro-7-methoxy-[1,2,4]triazolo[1,5-c]quinazolin-2-yl)ethyl)-1-(3,3-difluorocyclobutyl)-4,5,6,7-tetrahydro-1H-benzo[d][1,2,3]triazol-5-ol] | 1.1 nM
8 | COc1cc(F)cc2c1nc(N)n1nc(CCC3(O)CCc4c(nnn4C4CC(F)(F)C4)C3)nc21 (single isomer, unassigned) [Example 14.3B, (R or S)-5-(2-(5-amino-9-fluoro-7-methoxy-[1,2,4]triazolo[1,5-c]quinazolin-2-yl)ethyl)-1-(3,3-difluorocyclobutyl)-4,5,6,7-tetrahydro-1H-benzo[d][1,2,3]triazol-5-ol] | 3.4 nM
9 | COc1cccc2c1nc(N)n1nc(CC(C)(CO)CO)nc21 [Example 3.2, 2-((5-amino-7-methoxy-[1,2,4]triazolo[1,5-c]quinazolin-2-yl)methyl)-2-methylpropane-1,3-diol] | 10.9 nM
10 | CC(C)(N)c1ccc([C@@H]2C[C@H]2Cc2nc3c4cc(F)cc(F)c4nc(N)n3n2)cc1 [Example 8.3A, 2-(((1S,2R)-2-(4-(2-aminopropan-2-yl)phenyl)cyclopropyl)methyl)-7,9-difluoro-[1,2,4]triazolo[1,5-c]quinazolin-5-amine] | 38.1 nM
11 | CC(C)(N)c1ccc([C@H]2C[C@@H]2Cc2nc3c4cc(F)cc(F)c4nc(N)n3n2)cc1 [Example 8.3B, 2-(((1R,2S)-2-(4-(2-aminopropan-2-yl)phenyl)cyclopropyl)methyl)-7,9-difluoro-[1,2,4]triazolo[1,5-c]quinazolin-5-amine] | 25.4 nM
12 | COc1cccc2c1nc(N)n1nc(CCOc3ccc(C(O)(C(F)(F)F)C(F)(F)F)cc3)nc21 [Example 9.1, 2-(4-(2-(5-amino-7-methoxy-[1,2,4]triazolo[1,5-c]quinazolin-2-yl)ethoxy)phenyl)-1,1,1,3,3,3-hexafluoropropan-2-ol] | 1.7 nM
13 | COc1cccc2c1nc(N)n1nc(CCS(=O)(=O)C3CC3)nc21 [Example 13.3, 2-(2-(cyclopropylsulfonyl)ethyl)-7-methoxy-[1,2,4]triazolo[1,5-c]quinazolin-5-amine] | 1.6 nM
14 | COc1ccc2c(c1)nc(N)n1nc(CCS(=O)(=O)C3CC3)nc21 [Example 13.6, 2-(2-(cyclopropylsulfonyl)ethyl)-8-methoxy-[1,2,4]triazolo[1,5-c]quinazolin-5-amine] | 8.2 nM
15 | CS(=O)(=O)CCCc1nc2c3cc(F)cc(F)c3nc(N)n2n1 [Example 13.19, 7,9-difluoro-2-(3-(methylsulfonyl)propyl)-[1,2,4]triazolo[1,5-c]quinazolin-5-amine] | 21.8 nM
16 | Nc1nc2c(F)cc(F)cc2c2nc(CCCS(=O)(=O)C3CC3)nn12 [Example 13.20, 2-(3-(cyclopropylsulfonyl)propyl)-7,9-difluoro-[1,2,4]triazolo[1,5-c]quinazolin-5-amine] | 34.2 nM
17 | COc1ccc(C2=COCCC2)c2c1nc(N)n1nc(CO)nc21 [Example 15.4, (5-amino-10-(3,4-dihydro-2H-pyran-5-yl)-7-methoxy-[1,2,4]triazolo[1,5-c]quinazolin-2-yl)methanol] | 2.7 nM
18 | CCOC(=O)CCCn1cc(Cc2nc3c4cc(F)cc(OC)c4nc(N)n3n2)cn1 [Example 16.3, ethyl 4-(4-((5-amino-9-fluoro-7-methoxy-[1,2,4]triazolo[1,5-c]quinazolin-2-yl)methyl)-1H-pyrazol-1-yl)butanoate] | 14.9 nM
19 | COc1cc(F)cc2c1nc(N)n1nc(Cc3cnn(CCCC(C)(C)O)c3)nc21 [Example 16.4, 5-(4-((5-amino-9-fluoro-7-methoxy-[1,2,4]triazolo[1,5-c]quinazolin-2-yl)methyl)-1H-pyrazol-1-yl)-2-methylpentan-2-ol] | 15.3 nM
20 | COc1cc(F)cc2c1nc(N)n1nc(Cc3cnn(CCC(C)(C)O)c3)nc21 [Example 16.5, 4-(4-((5-amino-9-fluoro-7-methoxy-[1,2,4]triazolo[1,5-c]-quinazolin-2-yl)methyl)-1H-pyrazol-1-yl)-2-methylbutan-2-ol] | 43.4 nM
